What was measured:
Assay in all cases: relative viability (nuclei count vs DMSO), 5 days (fraction); higher = more cells survive
[1] = compound: c1ccc2c(CCNc3ccc(Nc4ccncc4)cc3)c[nH]c2c1 [Serdemetan] + Cc1nc(Nc2ncc(C(=O)Nc3c(C)cccc3Cl)s2)cc(N2CCN(CCO)CC2)n1 [Dasatinib] (partner 0.075 µM)
Summary of the method: (§1)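 The day after seeding in 1536-well plates, lung cancer cell lines were treated by pin tool with a single drug, or with a fixed anchor-drug dose together with five library-drug doses (not always all listed) in √10 steps. After 5 days, a combined fix-and-stain solution (final 0.05% Triton X-100, 1% formaldehyde, 1 ug/ml Hoechst) was added. Nuclei counted on 4× images gave relative viability as treated counts over vehicle counts, reported as the median of duplicate plates.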

[2] = compound: C1CC(C2=C(C1)C3=C(N2)C=CC(=C3)Cl)C(=O)N [Selisistat] + Nc1ncn([C@H]2C[C@H](O)[C@@H](CO)O2)c(=O)n1 [Decitabine] (partner 2 µM)
Summary of the method: as §1

[3] = compound: c1ccc2c(CCNc3ccc(Nc4ccncc4)cc3)c[nH]c2c1 [Serdemetan] + CCNC(=O)c1noc(-c2cc(C(C)C)c(O)cc2O)c1-c1ccc(CN2CCOCC2)cc1 [Luminespib] (partner 0.01 µM)
Summary of the method: as §1

[4] = compound: C1CC(C2=C(C1)C3=C(N2)C=CC(=C3)Cl)C(=O)N [Selisistat] + CC(C)C[C@H](NC(=O)[C@H](Cc1ccccc1)NC(=O)c1cnccn1)B(O)O [Bortezomib] (partner 0.002 µM)
Summary of the method: as §1

With NCI-H1755 the relative viability ([1]; first compound 0.04 µM) was 0.414, the relative viability ([1]; first compound 0.1265 µM) was 0.446 and the relative viability ([1]; first compound 0.4 µM) was 0.404. It also gave a relative viability ([1]; first compound 1.265 µM) of 0.24, a relative viability ([1]; first compound 4 µM) of 0.306 and a relative viability ([2]; first compound 0.4 µM) of 0.787. It also gave a relative viability ([2]; first compound 1.265 µM) of 0.741, a relative viability ([2]; first compound 4 µM) of 0.74 and a relative viability ([2]; first compound 12.65 µM) of 0.729. For the same cell line, the relative viability ([2]; first compound 40 µM) was 0.781, the relative viability ([3]; first compound 0.04 µM) was 0.417 and the relative viability ([3]; first compound 0.1265 µM) was 0.43. It also gave a relative viability ([3]; first compound 0.4 µM) of 0.568, a relative viability ([3]; first compound 1.265 µM) of 0.39 and a relative viability ([3]; first compound 4 µM) of 0.343. The relative viability ([4]; first compound 0.4 µM) was 1.04, the relative viability ([4]; first compound 1.265 µM) was 0.972 and the relative viability ([4]; first compound 4 µM) was 0.955. For the same cell line, the relative viability ([4]; first compound 12.65 µM) was 1.01 and the relative viability ([4]; first compound 40 µM) was 0.925.
In the case of NCI-H1792, the relative viability ([1]; first compound 0.04 µM) is reported as 0.746, the relative viability ([1]; first compound 0.1265 µM) is reported as 0.773 and the relative viability ([1]; first compound 0.4 µM) is reported as 0.747. For the same cell line, the relative viability ([1]; first compound 1.265 µM) was 0.533, the relative viability ([1]; first compound 4 µM) was 0.493 and the relative viability ([2]; first compound 0.4 µM) was 0.625. The relative viability ([2]; first compound 1.265 µM) was 0.497, the relative viability ([2]; first compound 12.65 µM) was 0.516 and the relative viability ([2]; first compound 40 µM) was 0.537. For the same cell line, the relative viability ([3]; first compound 0.04 µM) was 0.471, the relative viability ([3]; first compound 0.1265 µM) was 0.407 and the relative viability ([3]; first compound 0.4 µM) was 0.422. It also gave a relative viability ([3]; first compound 1.265 µM) of 0.415, a relative viability ([3]; first compound 4 µM) of 0.298 and a relative viability ([4]; first compound 0.4 µM) of 0.967. The relative viability ([4]; first compound 1.265 µM) was 1, the relative viability ([4]; first compound 12.65 µM) was 0.71 and the relative viability ([4]; first compound 40 µM) was 1.07.
Cell Line NCI-H1915 has a relative viability ([1]; first compound 0.04 µM) of 0.3, a relative viability ([1]; first compound 0.1265 µM) of 0.316 and a relative viability ([1]; first compound 0.4 µM) of 0.314. It also gave a relative viability ([1]; first compound 1.265 µM) of 0.287, a relative viability ([1]; first compound 4 µM) of 0.302 and a relative viability ([2]; first compound 0.4 µM) of 0.268. For the same cell line, the relative viability ([2]; first compound 1.265 µM) was 0.244, the relative viability ([2]; first compound 4 µM) was 0.264 and the relative viability ([2]; first compound 12.65 µM) was 0.255. It also gave a relative viability ([2]; first compound 40 µM) of 0.277, a relative viability ([3]; first compound 0.04 µM) of 0.74 and a relative viability ([3]; first compound 0.1265 µM) of 0.73. It also gave a relative viability ([3]; first compound 0.4 µM) of 0.672, a relative viability ([3]; first compound 1.265 µM) of 0.514 and a relative viability ([3]; first compound 4 µM) of 0.532. The relative viability ([4]; first compound 0.4 µM) was 1.03, the relative viability ([4]; first compound 1.265 µM) was 0.943 and the relative viability ([4]; first compound 4 µM) was 0.953. For the same cell line, the relative viability ([4]; first compound 12.65 µM) was 1.02 and the relative viability ([4]; first compound 40 µM) was 1.
NCI-H1975 gave a relative viability ([1]; first compound 0.04 µM) of 0.373, a relative viability ([1]; first compound 0.1265 µM) of 0.418 and a relative viability ([1]; first compound 0.4 µM) of 0.361. It also gave a relative viability ([1]; first compound 4 µM) of 0.352, a relative viability ([2]; first compound 0.4 µM) of 0.396 and a relative viability ([2]; first compound 1.265 µM) of 0.423. It also gave a relative viability ([2]; first compound 4 µM) of 0.346, a relative viability ([2]; first compound 12.65 µM) of 0.373 and a relative viability ([2]; first compound 40 µM) of 0.365. It also gave a relative viability ([3]; first compound 0.04 µM) of 0.371, a relative viability ([3]; first compound 0.1265 µM) of 0.393 and a relative viability ([3]; first compound 0.4 µM) of 0.176. The relative viability ([3]; first compound 1.265 µM) was 0.18, the relative viability ([3]; first compound 4 µM) was 0.17 and the relative viability ([4]; first compound 0.4 µM) was 0.434. The relative viability ([4]; first compound 1.265 µM) was 0.339, the relative viability ([4]; first compound 4 µM) was 0.33 and the relative viability ([4]; first compound 12.65 µM) was 0.354. The relative viability ([4]; first compound 40 µM) was 0.388.
With NCI-H1993 the relative viability ([1]; first compound 0.04 µM) was 0.578, the relative viability ([1]; first compound 0.1265 µM) was 0.698 and the relative viability ([1]; first compound 0.4 µM) was 0.517. For the same cell line, the relative viability ([1]; first compound 1.265 µM) was 0.507, the relative viability ([1]; first compound 4 µM) was 0.461 and the relative viability ([2]; first compound 0.4 µM) was 0.647. It also gave a relative viability ([2]; first compound 1.265 µM) of 0.597, a relative viability ([2]; first compound 12.65 µM) of 0.655 and a relative viability ([2]; first compound 40 µM) of 0.546. It also gave a relative viability ([3]; first compound 0.04 µM) of 0.981, a relative viability ([3]; first compound 0.1265 µM) of 0.778 and a relative viability ([3]; first compound 0.4 µM) of 0.811. For the same cell line, the relative viability ([3]; first compound 1.265 µM) was 0.768, the relative viability ([3]; first compound 4 µM) was 0.758 and the relative viability ([4]; first compound 0.4 µM) was 1.22. The relative viability ([4]; first compound 1.265 µM) was 1.18, the relative viability ([4]; first compound 12.65 µM) was 1.25 and the relative viability ([4]; first compound 40 µM) was 1.23.
Work on NCI-H2009 yielded a relative viability ([1]; first compound 0.04 µM) of 0.315, a relative viability ([1]; first compound 0.1265 µM) of 0.326 and a relative viability ([1]; first compound 0.4 µM) of 0.31. For the same cell line, the relative viability ([1]; first compound 1.265 µM) was 0.25, the relative viability ([1]; first compound 4 µM) was 0.221 and the relative viability ([2]; first compound 0.4 µM) was 0.437. It also gave a relative viability ([2]; first compound 1.265 µM) of 0.338, a relative viability ([2]; first compound 4 µM) of 0.372 and a relative viability ([2]; first compound 12.65 µM) of 0.45. It also gave a relative viability ([2]; first compound 40 µM) of 0.394, a relative viability ([3]; first compound 0.04 µM) of 0.925 and a relative viability ([3]; first compound 0.1265 µM) of 0.979. For the same cell line, the relative viability ([3]; first compound 0.4 µM) was 0.997, the relative viability ([3]; first compound 1.265 µM) was 1.01 and the relative viability ([3]; first compound 4 µM) was 0.888. For the same cell line, the relative viability ([4]; first compound 0.4 µM) was 1.01, the relative viability ([4]; first compound 1.265 µM) was 1.06 and the relative viability ([4]; first compound 4 µM) was 0.583. For the same cell line, the relative viability ([4]; first compound 12.65 µM) was 0.921 and the relative viability ([4]; first compound 40 µM) was 0.997.
Work on NCI-H2023 yielded a relative viability ([1]; first compound 0.04 µM) of 0.521, a relative viability ([1]; first compound 0.1265 µM) of 0.674 and a relative viability ([1]; first compound 0.4 µM) of 0.532. For the same cell line, the relative viability ([1]; first compound 1.265 µM) was 0.43, the relative viability ([1]; first compound 4 µM) was 0.233 and the relative viability ([2]; first compound 0.4 µM) was 0.233. For the same cell line, the relative viability ([2]; first compound 1.265 µM) was 0.198, the relative viability ([2]; first compound 4 µM) was 0.219 and the relative viability ([2]; first compound 12.65 µM) was 0.216. It also gave a relative viability ([2]; first compound 40 µM) of 0.202, a relative viability ([3]; first compound 0.04 µM) of 0.818 and a relative viability ([3]; first compound 0.1265 µM) of 0.857. The relative viability ([3]; first compound 0.4 µM) was 0.721, the relative viability ([3]; first compound 1.265 µM) was 0.334 and the relative viability ([3]; first compound 4 µM) was 0.193. The relative viability ([4]; first compound 0.4 µM) was 0.978, the relative viability ([4]; first compound 1.265 µM) was 0.961 and the relative viability ([4]; first compound 4 µM) was 0.849. It also gave a relative viability ([4]; first compound 12.65 µM) of 0.95 and a relative viability ([4]; first compound 40 µM) of 0.928.
Cell Line NCI-H2085 has a relative viability ([1]; first compound 0.04 µM) of 0.242, a relative viability ([1]; first compound 0.1265 µM) of 0.222 and a relative viability ([1]; first compound 0.4 µM) of 0.278. The relative viability ([1]; first compound 1.265 µM) was 0.269, the relative viability ([1]; first compound 4 µM) was 0.166 and the relative viability ([2]; first compound 0.4 µM) was 0.595. It also gave a relative viability ([2]; first compound 1.265 µM) of 0.551, a relative viability ([2]; first compound 4 µM) of 0.577 and a relative viability ([2]; first compound 12.65 µM) of 0.625. For the same cell line, the relative viability ([2]; first compound 40 µM) was 0.588, the relative viability ([3]; first compound 0.04 µM) was 0.454 and the relative viability ([3]; first compound 0.1265 µM) was 0.394. For the same cell line, the relative viability ([3]; first compound 0.4 µM) was 0.457, the relative viability ([3]; first compound 1.265 µM) was 0.382 and the relative viability ([3]; first compound 4 µM) was 0.354. It also gave a relative viability ([4]; first compound 0.4 µM) of 1.07, a relative viability ([4]; first compound 1.265 µM) of 1.14 and a relative viability ([4]; first compound 4 µM) of 0.95. For the same cell line, the relative viability ([4]; first compound 12.65 µM) was 1.17 and the relative viability ([4]; first compound 40 µM) was 1.02.

From the supplement of paper PMC10307832
